Measured values: article PMC6278284, “Synthesis of Jacaranone-Derived Nitrogenous Cyclohexadienones and Their Antiproliferative and Antiprotozoal Activities” (Molecules, 2018)

What was measured:
[1] = test system: MDA-MB-231 breast cancer cells; assay: XTT viability assay, MDA-MB-231; assay type: cell-based; conditions: Homo sapiens, 72 h, read-out: metabolic active cells in % of control; for viability at 5 µg/mL: MDA-MB-231, 5 µg/mL; for viability at 50 µg/mL: MDA-MB-231, 50 µg/mL
Experimental: Human CCRF-CEM leukemia and MDA-MB-231 breast cancer cells lines were kept in RPMI1640 medium (Gibco®, ThermoFisher Scientific Inc., New York, NY, USA), supplemented with 2 mM L-glutamine (Gibco®), 10% heat-inactivated foetal bovine serum (FBS, Gibco®), 100 units/mL Penicillin (PAA), and 100 µg/mL Streptomycin (Gibco®) (1% Pen/Strep). HCT-116 and U251 cells were cultured in high-glucose Dulbecco’s Modified Eagle Medium (DMEM, Gibco®) containing 2 mM L-glutamine, 10% FBS, and 1% Pen/Strep. MRC-5 cells were grown in Minimum Essential Medium (MEM, Gibco®) supplemented with 2 mM L-glutamine, 10% FBS, and 1% Pen/Strep. All cells were kept in a humidified 5% CO2 atmosphere at 37 °C and passaged at 90% confluence.
A Cell Proliferation Kit II (XTT) was purchased from Sigma-Aldrich and performed as described previously and in accordance with the manufacturer’s protocol. In brief, adherent cell lines were seeded at a density of 50,000 cells/mL or 100,000 cells/mL (MRC-5) in 96 well plates (100 µL, flat bottom) and grown for 24 h before test compounds were added. Suspension cells (CCRF-CEM) were seeded at 100,000 cells/mL and test compounds were added immediately. After 72 h, XTT solution was added for another 90 min or 4 h (CCRF-CEM cells) and absorbance was measured at 490 nm with a reference wave length of 650 nm (Hidex Sense Microplate Reader 425-301, Hidex, Turku, Finland). Results are expressed as a percentage of the vehicle-treated (0.5% DMSO) control cells. Vinblastine served as the positive control (0.01 µg/mL).

[2] = test system: human (cancer) cell lines (CCRF-CEM, MDA-MB-231, HCT-116, U251, MRC-5); assay: XTT viability assay, statements on the whole panel of cell lines; assay type: cell-based; conditions: 72 h; for metabolic activity, % of the control: in all (13i) or almost all (13b) cell lines; for overall cytotoxicity (in words): 50 µg/mL, panel of cell lines
Experimental: All synthesized dienones (13a–j, 14a, 14c, and 15) were evaluated for their cytotoxic activity against human (cancer) cell lines. To cover a range of different tumor entities, we used a panel of cancer cell lines (CCRF-CEM leukemia, MDA-MB-231 breast cancer, HCT-116 colon cancer, and U251 glioblastoma cells) as well as a non-tumorigenic human cell line (MRC-5 lung fibroblasts). All derivatives were screened for their cytotoxicity at 5 µg/mL and 50 µg/mL to cover a broad concentration range. Cells were exposed to the derivatives for 72 h. […] No clear correlation between cytotoxic and antiprotozoal effects could be drawn. […] Human CCRF-CEM leukemia and MDA-MB-231 breast cancer cells lines were kept in RPMI1640 medium (Gibco®, ThermoFisher Scientific Inc., New York, NY, USA), supplemented with 2 mM L-glutamine (Gibco®), 10% heat-inactivated foetal bovine serum (FBS, Gibco®), 100 units/mL Penicillin (PAA), and 100 µg/mL Streptomycin (Gibco®) (1% Pen/Strep). HCT-116 and U251 cells were cultured in high-glucose Dulbecco’s Modified Eagle Medium (DMEM, Gibco®) containing 2 mM L-glutamine, 10% FBS, and 1% Pen/Strep. MRC-5 cells were grown in Minimum Essential Medium (MEM, Gibco®) supplemented with 2 mM L-glutamine, 10% FBS, and 1% Pen/Strep. All cells were kept in a humidified 5% CO2 atmosphere at 37 °C and passaged at 90% confluence. A Cell Proliferation Kit II (XTT) was purchased from Sigma-Aldrich and performed as described previously and in accordance with the manufacturer’s protocol. In brief, adherent cell lines were seeded at a density of 50,000 cells/mL or 100,000 cells/mL (MRC-5) in 96 well plates (100 µL, flat bottom) and grown for 24 h before test compounds were added. Suspension cells (CCRF-CEM) were seeded at 100,000 cells/mL and test compounds were added immediately. After 72 h, XTT solution was added for another 90 min or 4 h (CCRF-CEM cells) and absorbance was measured at 490 nm with a reference wave length of 650 nm (Hidex Sense Microplate Reader 425-301, Hidex, Turku, Finland). Results are expressed as a percentage of the vehicle-treated (0.5% DMSO) control cells. Vinblastine served as the positive control (0.01 µg/mL).

## O=C1C=CC(O)(CCN2C(=O)C=CC2=O)C=C1 [Compound 13b, N-[2-(1-Hydroxy-4-oxocyclohexa-2,5-dien-1-yl)ethyl]maleimide]
[1]
  viability at 5 µg/mL: 1.71%
  viability at 50 µg/mL: 6.61%
[2]; 5 µg/mL
  metabolic activity, % of the control: below 40 % of the control

## O=C1C=CC(O)(CCN2C(=O)c3cccnc3C2=O)C=C1 [Compound 13f, N-[2-(1-Hydroxy-4-oxocyclohexa-2,5-dien-1-yl)ethyl]pyridine-2,3-dicarboximide]
[1]
  viability at 5 µg/mL: 112%
  viability at 50 µg/mL: 23%
[2]
  overall cytotoxicity (in words): negligible

## O=C1C=CC(O)(CCN2C(=O)COCC2=O)C=C1 [Compound 13g, N-[2-(1-Hydroxy-4-oxocyclohexa-2,5-dien-1-yl)ethyl]morpholine-3,5-dione]
[1]
  viability at 5 µg/mL: 104%
  viability at 50 µg/mL: 7.63%
[2]
  overall cytotoxicity (in words): negligible

## O=C1C=CC(O)(CCN2C(=O)C3=C(CCCC3)C2=O)C=C1 [Compound 13i, N-[2-(1-Hydroxy-4-oxocyclohexa-2,5-dien-1-yl)ethyl]-3,4,5,6-tetrahydrophthalimide]
[1]
  viability at 5 µg/mL: 32.4%
  viability at 50 µg/mL: 16.6%
[2]; 5 µg/mL
  metabolic activity, % of the control: below 40 % of the control

## O=C1C=CC(O)(CCN2C(=O)C3CC=CCC3C2=O)C=C1 (stereo not drawn) [Compound 13j, N-[2-(1-Hydroxy-4-oxocyclohexa-2,5-dien-1-yl)ethyl]-1,2,3,6-tetrahydrophthalimide]
[1]
  viability at 5 µg/mL: 87.7%
  viability at 50 µg/mL: 89%
[2]
  overall cytotoxicity (in words): negligible

## O=C1C=CC(O)(CCN2Cc3ccccc3C2)C=C1 [Compound 14a, N-[2-(1-Hydroxy-4-oxocyclohexa-2,5-dien-1-yl)ethyl]isoindoline]
[1]
  viability at 5 µg/mL: 95%
  viability at 50 µg/mL: 92.5%
[2]
  overall cytotoxicity (in words): negligible

## O=C1C=CC(O)(CCN2CCOCC2)C=C1 [Compound 14c, N-[2-(1-Hydroxy-4-oxocyclohexa-2,5-dien-1-yl)ethyl]morpholine]
[1]
  viability at 5 µg/mL: 56.8%
  viability at 50 µg/mL: 4.33%
[2]; 5 µg/mL
  cytotoxicity against most cell lines (in words): only minor cytotoxicity
